Data from patent US4983740A, “Process for 1,4-dihydropyridine compounds” (Adir et Compagnie, priority 1986, dated 1991).
Structures can show the parent of a compound that is named as a salt.

Experiments:
rat aorta = experiment: In vitro activity in rat aorta stimulated by potassium ions; format: cell-based, rat (male Wistar); conditions: 1 h; rat aorta rings, KCl 80 mM stimulation, cumulative doses at 60 minutes intervals
Method: Determination of the Vitro Activity in Rat Aorta Stimulated by Potassium Ions
This trial was carried out using isolated organs removed from male Wistar rats weighing 300 to 400 g, kept under a water diet 18 hours before sacrificing.
After quickly sacrificing the animal, the aorta (at the level of the arch of the aorta) is removed and dissected into 2 mm-long rings; the endothelium is removed mechanically. After an equilibration period of 1 hour in a physiological solution consisting of (mM): NaCl 112, KCl 5, KH2 PO4 1, MgSO4 1.2, CaCl2 2.5, NaHCO3 25 and glucose 11.5, the preparations are stimulated with a potassium-rich solution. The latter consists of (mM):NaCl 37, KCl 80, KH2 PO4 1, MgSO4 1.2, CaCl2 2.5, NaHCO3 25 and glucose 11.5. This solution has a pH of 7.4 at 37° C.
After 15 minutes of stabilization, the compounds to be tested are then added (sample volume 0.2 ml) at cumulative doses at 60 minutes intervals. From the relaxation values obtained, it is possible to construct a doseresponse curve, leading to the calculation of an IC50 value (expressed in M).

[1] = test system: conscious spontaneous hypertensive rats (SHR); experiment: Short-term studies in conscious spontaneous hypertensive rats (oral, systolic arterial pressure); format: in vivo, rat (SHR); conditions: 3 mg/kg
Method: Short-term Studies in Conscious Spontaneous Hypertensive Rats (SHR)
Male spontaneous hypertensive rats weighing 270 to 320 g, aged 16 to 24 weeks, are anesthetized with ether. A polyethylene catheter is introduced into the femoral artery and moved forward to the level of the tail. The pressure in the femoral artery is recorded with a Statham® P23 sensor, on a Gould® 2400 recorder. The animals are treated at least one hour after the operation. The compounds are administered orally, in the dissolved form. The doses administered are expressed in mg/kg of base. The compounds of the invention were compared with amlodipine and with another 1,4-dihydropyridine derivative reference compound, nifedipine.

[2] = test system: conscious dogs with renal hypertension; experiment: Study in conscious dogs with renal hypertension (oral, mean arterial pressure); format: in vivo, dog (Mongol); conditions: digestive route
Description: Study in Conscious Dogs with Renal Hypertension
Mongol dogs weighing 20 to 25 kg are used. A Silastic® catheter, inserted under anesthesia at the level of the abdominal aorta, left in position permanently, enables the arterial pressure to be determined subsequently in the conscious animal.
Arterial hypertension is induced by a second operation, under anesthesia, consisting in constricting the left renal artery with a clip, decreasing the flow rate therein by approximately 70%, the left kidney is also covered with a latex capsule in order to restrict circulatory compensations; the contralateral kidney is left in position.
The systolic, diastolic and mean arterial pressures are determined with a Statham® P23 pressure sensor attached to the Silastic® catheter and connected to a Gould® "pressure-processor". The compounds are tested in animals which became hypertensive in the conscious state at least one week after the second operation. The arterial pressure is continuously recorded up to 7 hours after the treatment and then at 24 hours.
The compounds to be tested are administered by the digestive route through gastric tubing, in the form of a solution which may be aqueous, aqueous/alcoholic and the like, depending on the solubility of the products.
The doses administered are expressed in mg base per body weight kg.

SMILES | IC50 (rat aorta) | Systolic arterial pressure after treatment, Δ mm Hg, 4 h [1] | Systolic arterial pressure after treatment, Δ mm Hg, 6 h [1] | other results
CCOC(=O)C1=C(COCCOCCN)NC(C)=C(C(=O)OC)C1c1cccc2c1OCO2 (racemic) [EXAMPLE 2, (4R,S)-2-{[2-(2-Aminoethoxy)ethoxy]methyl}-3-ethoxycarbonyl-5-methoxycarbonyl-6-methyl-4-(2,3-methylenedioxyphenyl)-1,4-dihydropyridine] | 30 nM | -13 mm Hg | -16 mm Hg | –
CCOC(=O)C1=C(COCCOCCN)NC(C)=C(C(=O)OC)C1c1ccccc1Cl (racemic) [EXAMPLE 5, (4R,S)-2-{[2-(2-Aminoethoxy)ethoxy]methyl}-4-(2-chlorophenyl)-3-ethoxycarbonyl-5-methoxycarbonyl-6-methyl-1,4-dihydropyridine fumarate] | 65 nM | -49 mm Hg | -49 mm Hg | Mean arterial pressure after treatment, Δ mm Hg, 4 h ([2]; 0.5 mg/kg): -32 mm Hg; Mean arterial pressure after treatment, Δ mm Hg, 7 h ([2]; 0.5 mg/kg): -25 mm Hg; Mean arterial pressure after treatment, Δ mm Hg, 4 h ([2]; 1.0 mg/kg): -48 mm Hg; Mean arterial pressure after treatment, Δ mm Hg, 7 h ([2]; 1.0 mg/kg): -39 mm Hg; Mean arterial pressure after treatment, Δ mm Hg, 24 h ([2]; 1.0 mg/kg): -10 mm Hg; Systolic arterial pressure after treatment, Δ mm Hg, 24 h [1]: -22 mm Hg
CCOC(=O)C1=C(COCCOCCN(C)Cc2ccccc2)NC(C)=C(C(=O)OC)C1c1ccccc1Cl (racemic) [EXAMPLE 7, (4R,S)-2-[{2-[2-(N-Methyl-N-benzylamino)ethoxy]ethoxy}-methyl]-4-(2-chlorophenyl)-3-ethoxycarbonyl-5-methoxycarbonyl-6-methyl-1,4-dihydropyridine tartrate] | 4 nM | -22 mm Hg | -16 mm Hg | Mean arterial pressure after treatment, Δ mm Hg, 4 h ([2]; 0.5 mg/kg): -7 mm Hg; Mean arterial pressure after treatment, Δ mm Hg, 7 h ([2]; 0.5 mg/kg): -3 mm Hg; Mean arterial pressure after treatment, Δ mm Hg, 24 h ([2]; 0.5 mg/kg): 0 mm Hg; Systolic arterial pressure after treatment, Δ mm Hg, 24 h [1]: -8 mm Hg
C=CCN(CC=C)CCOCCOCC1=C(C(=O)OCC)C(c2ccccc2Cl)C(C(=O)OC)=C(C)N1 (racemic) [EXAMPLE 8, (4R,S)-4-(2-Chlorophenyl)-2-[{2-[2-(N,N-diallylamino)ethoxy]ethoxy}methyl]-3-ethoxycarbonyl-5-methoxycarbonyl-6-methyl-1,4-dihydropyridine hemifumarate] | 6.5 nM | -21 mm Hg | -19 mm Hg | –
CCOC(=O)C1=C(CCCCCCCN)NC(C)=C(C(=O)OC)C1c1ccccc1Cl (racemic) [EXAMPLE 12, (4R,S)-2-(7-Aminoheptyl)-4-(2-chlorophenyl)-3-ethoxycarbonyl-5-methoxycarbonyl-6-methyl-1,4-dihydropyridine fumarate] | 25 nM | -23 mm Hg | -30 mm Hg | Mean arterial pressure after treatment, Δ mm Hg, 4 h ([2]; 2.0 mg/kg): -22 mm Hg; Mean arterial pressure after treatment, Δ mm Hg, 7 h ([2]; 2.0 mg/kg): -32 mm Hg; Systolic arterial pressure after treatment, Δ mm Hg, 24 h [1]: -21 mm Hg
CCOC(=O)C1=C(COCCCOCCCN)NC(C)=C(C(=O)OC)C1c1cccc(C(F)(F)F)c1SC (racemic) [EXAMPLE 30, (4R,S)-2-{[3-(3-Aminopropoxy)propoxy]methyl}-3-ethoxycarbonyl-5-methoxycarbonyl-6-methyl-4-(2-methylthio-3-trifluoromethylphenyl)-1,4-dihydropyridine fumarate] | 25 nM | – | – | –
CCOC(=O)C1=C(COCCOCCN)NC(C)=C(C(=O)OC)C1c1cc(Cl)cc(Cl)c1Cl (racemic) [EXAMPLE 31, (4R,S)-2-{[2-(2-Aminoethoxy)ethoxy]methyl}-3-ethoxycarbonyl-5-methoxycarbonyl-6-methyl-4-(2,3,5-trichlorophenyl)-1,4-dihydropyridine fumarate] | 170 nM | – | – | –
CCOC(=O)C1=C(COCCOCCN)NC(C)=C(C(=O)OC)C1c1c(Cl)ccc(Cl)c1Cl (racemic) [EXAMPLE 32, (4R,S,)-2-{[2-(2-Aminoethoxy)ethoxy]methyl}-3-ethoxycarbonyl-5-methoxycarbonyl-6-methyl-4-(2,3,6-trichlorophenyl)-1,4-dihydropyridine fumarate] | 32 nM | – | – | –
COC(=O)C1=C(C)NC(COCCOCCN)=C(C(=O)OCCCC(C2CC2)C2CC2)C1c1cccc(Cl)c1Cl (racemic) [EXAMPLE 33, (4R,S)-2-{[2-(2-Aminoethoxy)ethoxy]methyl}-4-(2,3-dichlorophenyl)-3-(4,4-dicyclopropylbutyloxycarbonyl)-5-methoxycarbonyl-6-methyl-1,4-dihydropyridinefumarate] | 77 nM | – | – | –
COC(=O)C1=C(C)NC(COCCOCCN)=C(C(=O)OC/C=C/C(C2CC2)C2CC2)C1c1cccc(Cl)c1Cl [EXAMPLE 29, (4R,S)-2-{[2-(2-Aminoethoxy)ethoxy]methyl}-4-(2,3-dichlorophenyl)-3-{[(E)-4,4-dicyclopropyl-2-butene]-oxycarbonyl}-5-methoxycarbonyl-6-methyl-1,4-dihydropyridine tartrate] | 75 nM | – | – | –
COC(=O)C1=C(C)NC(C)=C(C(=O)OC)C1c1ccccc1[N+](=O)[O-] [NIFEDIPINE, nifedipine, reference compound] | – | -19 mm Hg | -25 mm Hg | –

More lines, main results first:

IC50 (rat aorta) | SMILES | Systolic arterial pressure after treatment, Δ mm Hg, 4 h [1] | Systolic arterial pressure after treatment, Δ mm Hg, 6 h [1] | other results
1.1 nM | CCCNCCOCCOCC1=C(C(=O)OCC)C(c2c(F)c(F)c(F)c(F)c2F)C(C(=O)OC)=C(C)N1 (racemic) [EXAMPLE 34, (4R,S)-3-Ethoxycarbonyl-5-methoxycarbonyl-6-methyl-4-pentafluorophenyl-2-[{2-[2-(N-propylamino)ethoxy]ethoxy}-methyl]-1,4-dihydropyridine fumarate] | – | – | –
21 nM | COC(=O)C1=C(C)NC(COCCOCCN)=C(C(=O)OC(C)C)C1c1cccc(C(F)(F)F)c1Cl (racemic) [EXAMPLE 35, (4R,S)-2-{[2-(2-Aminoethoxy)ethoxy]methyl}-4-(2-chloro-3-trifluoromethylphenyl)-3-isopropoxycarbonyl-5-methoxycarbonyl-6-methyl-1,4-dihydropyridine tartrate] | – | – | –
470 nM | COC(=O)C1=C(C)NC(COCCOCCN)=C(C(=O)OCCCC(C2CC2)C2CC2)C1c1cccc(C(F)(F)F)c1Cl (racemic) [EXAMPLE 36, (4R,S)-2-{[2-(2-Aminoethoxy)ethoxy]methyl}-4-(2-chloro-3-trifluoromethylphenyl)-3-(4,4-dicyclopropylbutyloxycarbonyl)-5-methoxycarbonyl-6-methyl-1,4-dihydropyridine fumarate] | – | – | –
61 nM | COC(=O)C1=C(C)NC(COCCOCCN)=C(C(=O)OCC(C)C)C1c1cccc(C(F)(F)F)c1Cl (racemic) [EXAMPLE 38, (4R,S)-2-{[2-(2-Aminoethoxy)ethoxy]methyl}-4-(2-chloro-3-trifluoromethylphenyl)-3-isobutyloxycarbonyl-5-methoxycarbonyl-6-methyl-1,4-dihydropyridine fumarate] | – | – | –
80 nM | C=C(C)COC(=O)C1=C(COCCOCCN)NC(C)=C(C(=O)OC)C1c1cccc(Cl)c1Cl (racemic) [EXAMPLE 39, (4R,S)-2-{[2-(2-Aminoethoxy)ethoxy]methyl}-4-(2,3-dichlorophenyl)-3-[(2-methyl-2-propenyl)oxycarbonyl]-5-methoxycarbonyl-6-methyl-1,4-dihydropyridine fumarate] | – | – | –
350 nM | COC(=O)C1=C(C)NC(COCCOCCN)=C(C(=O)OC/C=C/C(C2CC2)C2CC2)C1c1cccc(C(F)(F)F)c1Cl [EXAMPLE 37, (4R,S)-2-{[2-(2-Aminoethoxy)ethoxy]methyl}-4-(2-chloro-3-trifluoromethylphenyl)-3-{[(E)-4,4-dicyclopropyl-2-butene]oxycarbonyl}-5-methoxycarbonyl-6-methyl-1,4-dihydropyridine fumarate] | – | – | –
